# Tests used:
# [1] = In vivo regulation of glucose metabolism
# NOD mice = assay: Incidence of diabetes in NOD mice upon treatment with DPIV inhibitors; format: in vivo
# Experimental: The experiment was started on 8-10 week old NOD mice. The mice were kept under VAF/SPF conditions and fed everyday with either Val-boro-Pro (0.034 mg/kg) or Cyclohexyl-boro-Ala (0.34 mg/kg) for 60 days and then observed for the development of spontaneous diabetes. The mice were tested for the excretion of sugar in urine and considered positive for diabetes when sugar was detected in the urine.
# [2] = in vivo, cited from earlier work
# DPIV = biological target: T1, DPIV (Rattus norvegicus, UniProt P14740); assay: DPIV assays on serum samples from rats; format: in vivo; conditions: rat serum 1 hour after treatment; Ala-Pro-paranitroanalide substrate, pH 8
# T1 construct: from tissue; host or cells: rat serum
# Experimental: Four rats were used in this experiment: two females (#3 and #9) and two males (#10 and #11). Blood and plasma samples were collected from rats 1 hour after being treated with Cyclohexylglycine-boroAla. The collected serum samples were evaluated for DPPIV activity of Cyclohexylglycine-boroAla as follows: • 1. 2 mg of Ala-Pro-paranitroanalide (substrate) was dissolved in 20 ml 0.1 M HEPES pH 8, 0.14 M NaCl (buffer). • 2. Serum samples were diluted into substrate solution in the wells of a microtiter plate. For each sample, 10 uL of serum was diluted into 150 μL of substrate. • 3. A reading of the A410 in each well was recorded immediately after the dilution of serum into substrate, and again after approximately 1 hour. The time of data acquisition for each reading is recorded in the data file by the microplate reader software.
# The rate of absorbance change was obtained by subtracting the first reading from the second and dividing by the reaction time to give DeltaA410/hr. The DPIV activity was plotted in units of DeltaA410 hr^−1μ^−1.
# DP-IV = DP-IV (Homo sapiens, UniProt P27487); assay: Inhibition / affinity for DP-IV; format: biochemical
# [3] = chronic (>5 days) treatment, alone
# Chain of DP-IV (P27487 whole entry): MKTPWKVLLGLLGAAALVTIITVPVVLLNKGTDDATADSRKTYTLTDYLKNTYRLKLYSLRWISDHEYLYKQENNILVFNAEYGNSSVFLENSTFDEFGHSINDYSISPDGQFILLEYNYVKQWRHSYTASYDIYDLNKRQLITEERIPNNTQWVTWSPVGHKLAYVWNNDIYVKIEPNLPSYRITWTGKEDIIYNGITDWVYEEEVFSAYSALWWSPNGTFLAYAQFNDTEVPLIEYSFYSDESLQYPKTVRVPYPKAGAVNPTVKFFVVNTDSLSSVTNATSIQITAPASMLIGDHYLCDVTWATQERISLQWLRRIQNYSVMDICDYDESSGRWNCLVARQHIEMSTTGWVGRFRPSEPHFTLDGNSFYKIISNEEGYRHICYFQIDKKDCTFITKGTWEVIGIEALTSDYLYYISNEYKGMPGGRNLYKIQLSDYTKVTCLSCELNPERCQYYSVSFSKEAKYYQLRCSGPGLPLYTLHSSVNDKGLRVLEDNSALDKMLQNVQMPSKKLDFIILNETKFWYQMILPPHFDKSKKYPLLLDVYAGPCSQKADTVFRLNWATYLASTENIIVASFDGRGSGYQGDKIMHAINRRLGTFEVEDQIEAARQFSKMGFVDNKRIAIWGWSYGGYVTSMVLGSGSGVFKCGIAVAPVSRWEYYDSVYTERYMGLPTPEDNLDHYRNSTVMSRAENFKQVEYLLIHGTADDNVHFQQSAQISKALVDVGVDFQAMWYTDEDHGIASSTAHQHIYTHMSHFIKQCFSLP
# T1 sequence (P14740 38-767 limits assumed): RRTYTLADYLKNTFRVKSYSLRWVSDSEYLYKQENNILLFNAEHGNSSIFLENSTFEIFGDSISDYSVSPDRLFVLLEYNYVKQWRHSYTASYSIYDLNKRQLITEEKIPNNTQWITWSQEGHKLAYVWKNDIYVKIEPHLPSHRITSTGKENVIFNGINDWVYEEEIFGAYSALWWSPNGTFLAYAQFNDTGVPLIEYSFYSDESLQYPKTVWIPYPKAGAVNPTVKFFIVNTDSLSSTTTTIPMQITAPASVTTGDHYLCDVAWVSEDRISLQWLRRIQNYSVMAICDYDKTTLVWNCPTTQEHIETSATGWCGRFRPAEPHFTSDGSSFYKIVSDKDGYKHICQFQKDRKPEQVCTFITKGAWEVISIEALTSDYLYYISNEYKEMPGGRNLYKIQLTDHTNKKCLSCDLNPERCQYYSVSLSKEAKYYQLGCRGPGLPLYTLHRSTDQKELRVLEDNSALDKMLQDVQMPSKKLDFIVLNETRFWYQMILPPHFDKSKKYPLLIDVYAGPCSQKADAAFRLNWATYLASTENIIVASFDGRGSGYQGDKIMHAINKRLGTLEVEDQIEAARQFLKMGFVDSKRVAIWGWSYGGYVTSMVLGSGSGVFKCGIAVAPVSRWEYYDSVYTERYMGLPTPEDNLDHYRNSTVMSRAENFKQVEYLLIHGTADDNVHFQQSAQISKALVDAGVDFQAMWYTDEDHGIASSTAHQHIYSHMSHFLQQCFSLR
compound,measurement,setting,value
O=C(C1CCCN1)N1CCCC1B(O)O (stereo not drawn) [Pro-boro-Pro],fasting blood sugars,[1]; [3],lowers
same,glycemic excursion to oral glucose challenge,[1]; [3],lowers
same,response to a subtherapeutic dose of GLP-1,[1]; single injection,potentiate the response
same,glucose control,"[1]; single injection, alone",alone sufficient to improve glucose control
CC(C)[C@H](N)C(=O)N1CCC[C@H]1B(O)O [Val-boro-Pro],recovery of mice that showed signs of diabetes,NOD mice; 0.034 mg/kg fed every day for 60 days,some of the mice that showed signs of diabetes got better and recovered
same,incidence of Diabetes,"NOD mice; 0.034 mg/kg fed every day for 60 days, end of the experiment",low incidence of Diabetes
same,general health compared to the other groups,NOD mice; end of the experiment,generally good health
glucagon-like peptide-1 [GLP-1],degradation,[2]; iv,extensively degraded
same,degradation without inhibitor,[2]; sc,rapidly degraded in a time-dependent manner
CC(NC(=O)C(N)C1CCCCC1)B(O)O (stereo not drawn) [Cyclohexylglycine-boroAla],DPIV enzyme activity in serum,DPIV,significantly decreased
"CC(NC(=O)OC(C)(C)C)C(=O)N1CCCC1B(O)O (stereo not drawn) [Boc-blocked Ala-boroPro, Boc-Ala-boroPro]",affinity for DP-IV,DP-IV,no affinity
L-Ala-L-boroPro-pinacol,"extent of DP-IV inhibition, silica gel fractions compared",DP-IV; early fraction vs later fractions at equal concentrations,inhibits DP-IV to a greater extent than later fractions

# Reference: patent publication US8410053B2, “Methods for treating autoimmune disorders, and reagents related thereto” (Trustees of Tufts College, priority 2001, dated 2013)
